Test results: patent publication US6740637B1, “Chlorophyll and bacteriochlorophyll derivatives, their preparation and pharmaceutical compositions comprising them” (priority 1998, dated 2004)
“Also recorded” adds a separate entry of the source.

Assays:
cell cultures = settings: cited from earlier work
C57Bl mice = assay: Toxicity of serine conjugates in mice in the absence of irradiation; format: in vivo, mouse; settings: injections of up to 40 mg/kg body weight, up to 14 days, no irradiation
Protocol: (d) Toxicity of the Chl and Bchl-serine conjugates Chla-L-Ser-OMe and Bchla-L-Ser-OMe in C57Bl mice under normal housing conditions in the absence of irradiation was estimated by injection of the compound dissolved in 10% ethanol/PBS. Control mice were injected with the vehicle only. […] This dose of drug was thus far the highest used and LD50 vs. EC50 of treatment (margins of therapeutic index) have yet to be determined.

[1] = cited from earlier work
[2] = tested on: Staphylococcus Aureus Cowan I; format: cell-based
Protocol: Light source: All the phototoxicity assays were performed with a home-built Xenon lamp with vertical emission providing 140 mW/cm^2 at the target level, using glass or a Cr2K2O7 liquid filter transferring light at […].
Bacterial culture: Lyophilized Staphylococcus Aureus Cowan I, kindly provided by Prof. Z. Eshar, the Weizmann Institute, Israel were grown in liquid brain heart infusion (BHI) media for 18 hours at 37° C. with continuous shaking.
Phototoxicity experiments: The standard experimental design consisted of four discrete steps: (i) Pre-incubation: Fresh bacterial suspensions (200 μl) in 0.1M carbonate buffer, pH 8.6, were incubated with the test sensitizer and/or inhibitor at the indicated concentrations for 1 hour in the dark. (ii) Wash: Unbound sensitizer was removed by washing and resuspension in the same buffer (x3). (iii) Illumination: The bacterial suspensions were exposed to light (140 mW/cm^2, λ>550 nm) for 5 min. (iv) Assessment of survival: Samples of the bacterial suspensions (30 μl) were cultured in 2 ml of BHI liquid media at 37° C. (shaking) for 2 hr. Bacterial density was monitored by turbidity measurements at λ=660 nm, taking OD660=1 for 5×10^7 bacteria/ml. Each experiment consisted of one experimental and three control groups:
Experimental group: Bacteria were subjected to complete treatment (varying one experimental factor). Light control: irradiated bacteria, not treated with sensitizer. Dark control: non-irradiated bacteria, treated with sensitizer in the dark. Untreated control: values used for calculation of 100% survival.

[3] = in vivo; cited from earlier work
MR2 melanoma tumors = assay: Photodynamic treatment of melanoma tumor implanted in CD1 nude mouse, MRI follow up; format: in vivo
Protocol: (a) Tumor implantation: M2R cells are routinely maintained as monolayers. The cells are scraped with the aid of a rubber policeman and suspended in normal saline, 1×10^6 cells/0.1 ml are injected subcutaneously on the flank or batch of C57Bl or CD1 nude male mice. […] A similar procedure is used in nude mice in which either mouse M2R or human (FO/1, MRI/H/221, HS695T amelanotic melanoma or SK/MEL/28) melanoma tumors are implanted.

Structure (SMILES): CC[C@H]1c2cc3[n-]c4c(c3C)C(=O)[C@H](C(=O)OC)c4c3nc(cc4[n-]c(cc(n2)[C@@H]1C)c(C(C)=O)c4C)[C@@H](C)[C@@H]3CCC(=O)OC[C@H](N)C(=O)OC.[Mg+2] [Bchla-L-Ser-OMe, L-seryl Methyl Ester Bacteriochlorophyllide a]
- LD50 (phototoxicity in cell cultures) (cell cultures): 50 nM
- effect on behavior and well being of mice (C57Bl mice): no noticeable effect on the behavior and well being of the mice
- water solubility [1]: water soluble
- concentration of maximal phototoxicity [2]: 0.5 µM
- phototoxicity LD50 ([2]; as described in Example 17): 70 nM
- dark toxicity ([2]; no light, up to highest tested concentration (10 μM)): no detectable dark toxicity
- clearance from the animal body [3]: 16 h
- tumor by MRI after first treatment (MR2 melanoma tumors; 50-150 μg into and around tumor, halogen light 60 min, 84 h later): essentially eliminated
- tumor recurrence by MRI after second treatment (MR2 melanoma tumors; after a second treatment (2-3 weeks later)): no recurrence
- tumor recurrence by MRI after first treatment (MR2 melanoma tumors; two weeks after first treatment): small recurrence; also recorded: some recurrence
